From US20230279025A1, “KRAS G12D INHIBITORS” (Mirati Therapeutics, Inc., priority 2020, published 2023) come the findings set out here.

Some results are limits rather than exact numbers.

For the assay, the target named is KRas G12D (Homo sapiens (Human), UniProt P01116, G12D). Briefly: KRas G12D Binding Assay (TR-FRET displacement of Cy5 labelled tracer). The following applies: GDP-loaded KRAS G12D (amino acids 1:169), 60 minute incubation at 22° C. How it is done:
After a 60 minute incubation at 22° C., the reaction was measured using a PerkinElmer EnVision multimode plate reader via TR-FRET dual wavelength detection, and the percent of control (POC) calculated using a ratiometric emission factor. […] The POC values were fit to a 4-parameter logistic curve and the IC50 value was determined as the concentration where the curve crosses 50 POC.
ND stands for “not determined.”

Chain of KRas G12D (P01116 other isoform, or with tags, fused parts or gaps G12D): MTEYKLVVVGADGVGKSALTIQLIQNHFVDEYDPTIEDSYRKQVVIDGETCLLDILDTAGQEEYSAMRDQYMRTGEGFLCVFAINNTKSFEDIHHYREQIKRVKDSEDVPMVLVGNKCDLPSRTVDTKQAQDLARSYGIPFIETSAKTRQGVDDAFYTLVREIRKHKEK

The molecule `Fc1c(-c2ccccc2OC(F)F)ncc2c(N3C[C@H]4CC[C@@H](C3)N4)nc(OCC34CCCN3CCC4)nc12` [Example 303, 4-((1R,5S)-3,8-diazabicyclo[3.2.1]octan-3-yl)-7-(2-(difluoromethoxy)phenyl)-8-fluoro-2-((hexahydro-1H-pyrrolizin-7a-yl)methoxy)pyrido[4,3-d]pyrimidine] yielded a 50% inhibitory concentration (IC50) of 357 nM. In other words, the sub-micromolar range.

Consider `COCCNC(=O)O[C@@H]1C[C@@H](COc2nc(N3C[C@H]4CC[C@@H](C3)N4)c3cnc(-c4cccc5cccc(Cl)c45)c(F)c3n2)N(C)C1` [Example 280, (3R,5S)-5-(((4-((1R,5S)-3,8-diazabicyclo[3.2.1]octan-3-yl)-7-(8-chloronaphthalen-1-yl)-8-fluoropyrido[4,3-d]pyrimidin-2-yl)oxy)methyl)-1-methylpyrrolidin-3-yl (2-methoxyethyl)carbamate], for which the IC50 was 99.8 nM.

As for `Fc1c(-c2cccc3cccc(Cl)c23)ncc2c(N3C[C@H]4CC[C@@H](C3)N4)nc(OCCC3CC(F)(F)C3)nc12` [Example 129, 4-((I R,5S)-3,8-diazabicyclo[3.2.1]octan-3-yl)-7-(8-chloronaphthalen-1-yl)-2-(2-(3,3-difluorocyclobutyl)ethoxy)-8-fluoropyrido[4,3-d]pyrimidine], the half-inhibitory concentration (IC50) was 4090 nM. This IC50 is about 41-fold higher than that of the molecule before.

Consider `C[C@H]1C[C@@H]1c1ccccc1-c1ncc2c(N3C[C@H]4CC[C@@H](C3)N4)nc(OCC34CCCN3CCC4)nc2c1F` [Example 289, 4-((1R,5S)-3,8-diazabicyclo[3.2.1]octan-3-yl)-8-fluoro-2-((hexahydro-1H-pyrrolizin-7a-yl)methoxy)-7-(2-((1S,2S)-2-methylcyclopropyl)phenyl)pyrido[4,3-d]pyrimidine], for which the concentration for half-maximal inhibition (IC50) stood at 218 nM.

`CS(=O)(=O)NC[C@H]1CC[C@@]2(COc3nc(N4C[C@H]5CC[C@@H](C4)N5)c4cnc(-c5cccc6cccc(Cl)c56)c(F)c4n3)CCCN12` [Example 420, N-(((3R,7aR)-7a-(((4-((1R,5S)-3,8-diazabicyclo[3.2.1]octan-3-yl)-7-(8-chloronaphthalen-1-yl)-8-fluoropyrido[4,3-d]pyrimidin-2-yl)oxy)methyl)hexahydro-1H-pyrrolizin-3-yl)methyl)methanesulfonamide] returned a half-maximal inhibitory concentration (IC50) of 20 nM. Against the preceding molecule, the IC50 is about 11-fold lower.

As to `[2H]C1([2H])CC[C@@]2(C([2H])([2H])Oc3nc(N4C[C@H]5CC[C@@H](C4)N5)c4cnc(-c5cc(O)cc6cccc(CC)c56)c(F)c4n3)C[C@@H](F)CN12` [Example 480, 4-(4-((1R,5S)-3,8-diazabicyclo[3.2.1]octan-3-yl)-8-fluoro-2-(((2R,7aS)-2-fluorotetrahydro-1H-pyrrolizin-7a(5H)-yl-5,5-d2)methoxy-d2)pyrido[4,3-d]pyrimidin-7-yl)-5-ethylnaphthalen-2-ol], the IC50 is less than 0.002 nM.

`CCc1cccc2cccc(-c3ncc4c(N5C[C@H]6CC[C@@H](C5)N6)nc(OC[C@@]56CCCN5C[C@H](F)C6)nc4c3F)c12` [Example 465, 4-((1R,5S)-3,8-diazabicyclo[3.2.1]octan-3-yl)-7-(8-ethylnaphthalen-1-yl)-8-fluoro-2-(((2R,7aS)-2-fluorohexahydro-1H-pyrrolizin-7a-yl)methoxy)pyrido[4,3-d]pyrimidine] yielded an IC50 of 0.001 nM.

`CC(C)c1c(Cl)cc(O)cc1-c1ncc2c(N3C[C@H]4CC[C@@H](C3)N4)nc(OC[C@@]34CCCN3C[C@H](F)C4)nc2c1F` [Example 291, 3-(4-((1R,5S)-3,8-diazabicyclo[3.2.1]octan-3-yl)-8-fluoro-2-(((2R,7aS)-2-fluorohexahydro-1H-pyrrolizin-7a-yl)methoxy)pyrido[4,3-d]pyrimidin-7-yl)-5-chloro-4-isopropylphenol]: the IC50 turned out to be 1.6 nM.

Turning to `Cc1cccc(-c2ncc3c(N4C[C@H]5CC[C@@H](C4)N5)nc(OCC45CCCN4CCC5)nc3c2F)c1Cl` [Example 276, 4-((1R,5S)-3,8-diazabicyclo[3.2.1]octan-3-yl)-7-(2-chloro-3-methylphenyl)-8-fluoro-2-((hexahydro-1H-pyrrolizin-7a-yl)methoxy)pyrido[4,3-d]pyrimidine], the IC50 is 16.2 nM. This IC50 lies about 10-fold higher than the previous one.

Regarding `Cc1ccc2c(-c3ncc4c(N5C[C@H]6CC[C@@H](C5)N6)nc(OC[C@@H]5CCCN5C)nc4c3F)cccc2c1` [Example 207, 4-((1R,5S)-3,8-diazabicyclo[3.2.1]octan-3-yl)-8-fluoro-7-(6-methylnaphthalen-1-yl)-2-(((S)-1-methylpyrrolidin-2-yl)methoxy)pyrido[4,3-d]pyrimidine], the IC50 came to 4910 nM.

For `Fc1c(-c2cccc3scnc23)ncc2c(N3C[C@H]4CC[C@@H](C3)N4)nc(OCC34CCCN3CCC4)nc12` [Example 454, 4-(4-((1R,5S)-3,8-diazabicyclo[3.2.1]octan-3-yl)-8-fluoro-2-((hexahydro-1H-pyrrolizin-7a-yl)methoxy)pyrido[4,3-d]pyrimidin-7-yl)benzo[d]thiazole], the IC50 amounted to 295 nM.

`Oc1ccc(C(F)(F)F)c(-c2ncc3c(N4C[C@H]5CC[C@@H](C4)N5)nc(OCC45CCCN4CCC5)nc3c2F)c1` [Example 373, 3-(4-((1R,5S)-3,8-diazabicyclo[3.2.1]octan-3-yl)-8-fluoro-2-((tetrahydro-1H-pyrrolizin-7a(5H)-yl)methoxy)pyrido[4,3-d]pyrimidin-7-yl)-4-(trifluoromethyl)phenol] showed an IC50 of 1.6 nM.

`CCc1ccccc1-c1ncc2c(N3C[C@H]4CC[C@@H](C3)N4)nc(OCC34CCCN3CCC4)nc2c1F` [Example 295, 4-((1R,5S)-3,8-diazabicyclo[3.2.1]octan-3-yl)-7-(2-ethylphenyl)-8-fluoro-2-((hexahydro-1H-pyrrolizin-7a-yl)methoxy)pyrido[4,3-d]pyrimidine] showed an IC50 of 192 nM. Against the preceding molecule, the IC50 is about 120-fold higher.

`COc1c(Cl)cccc1-c1ncc2c(N3C[C@H]4CC[C@@H](C3)N4)nc(OCC34CCCN3CCC4)nc2c1F` [Example 311, 4-((1R,5S)-3,8-diazabicyclo[3.2.1]octan-3-yl)-7-(3-chloro-2-methoxyphenyl)-8-fluoro-2-((hexahydro-1H-pyrrolizin-7a-yl)methoxy)pyrido[4,3-d]pyrimidine] displayed an IC50 of 135 nM.

`C[C@H]1C[C@H]1c1ccccc1-c1ncc2c(N3C[C@H]4CC[C@@H](C3)N4)nc(OCC34CCCN3CCC4)nc2c1F` [Example 287, 4-((1R,5S)-3,8-diazabicyclo[3.2.1]octan-3-yl)-8-fluoro-2-((hexahydro-1H-pyrrolizin-7a-yl)methoxy)-7-(2-((1R,2S)-2-methylcyclopropyl)phenyl)pyrido[4,3-d]pyrimidine] showed an IC50 of 90.7 nM.

Regarding `Fc1ccc2cccc(-c3ncc4c(N5C[C@H]6CC[C@@H](C5)N6)nc(OC[C@@]56CCCN5C[C@H](F)C6)nc4c3F)c2c1F` [Example 430, 4-((1R,5S)-3,8-diazabicyclo[3.2.1]octan-3-yl)-7-(7,8-difluoronaphthalen-1-yl)-8-fluoro-2-(((2R,7aS)-2-fluorotetrahydro-1H-pyrrolizin-7a(5H)-yl)methoxy)pyrido[4,3-d]pyrimidine], the half-maximal inhibitory concentration (IC50) is 1 nM.

Take `CN(C)Cc1ccc(COCCNC(=O)O[C@@H]2C[C@@H](COc3nc(N4C[C@H]5CC[C@@H](C4)N5)c4cnc(-c5cccc6cccc(Cl)c56)c(F)c4n3)N(C)C2)cc1` [Example 308, (3R,5S)-5-(((4-((1R,5S)-3,8-diazabicyclo[3.2.1]octan-3-yl)-7-(8-chloronaphthalen-1-yl)-8-fluoropyrido[4,3-d]pyrimidin-2-yl)oxy)methyl)-1-methylpyrrolidin-3-yl (2-((4-((dimethylamino)methyl)benzyl)oxy)ethyl)carbamate]: the IC50 came to 117 nM.

A word on the IC50: it is the concentration at which inhibition is half-maximal.
